Data published in PubChem BioAssay (NCI).
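1) Cells in 96-well plates. 2) Compound, 48 h, 5 concentrations. 3) Linear interpolation between surrounding doses. 4) Unreached endpoint = highest concentration. TGI denotes the concentration required for complete inhibition of growth.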

Columns and labels:
Test in all cases: inhibition of tumour cell growth, NCI panel, 48 h
786-0 renal = test system: 786-0 renal
A549 NSCLC = test system: A549 NSCLC
ACHN renal = test system: ACHN renal
CCRF-CEM leukemia = test system: CCRF-CEM leukemia
COLO 205 colon = test system: COLO 205 colon
DU-145 prostate = test system: DU-145 prostate
EKVX NSCLC = test system: EKVX NSCLC
HCT-116 colon = test system: HCT-116 colon
HCT-15 colon = test system: HCT-15 colon
HL-60(TB) leukemia = test system: HL-60(TB) leukemia
HOP-62 NSCLC = test system: HOP-62 NSCLC
HOP-92 NSCLC = test system: HOP-92 NSCLC
HS 578T breast = test system: HS 578T breast
HT29 colon = test system: HT29 colon
IGROV1 ovarian = test system: IGROV1 ovarian
K-562 leukemia = test system: K-562 leukemia
KM12 colon = test system: KM12 colon
LOX IMVI melanoma = test system: LOX IMVI melanoma
M14 melanoma = test system: M14 melanoma
MALME-3M melanoma = test system: MALME-3M melanoma
MCF7 breast = test system: MCF7 breast
MDA-MB-231 breast = test system: MDA-MB-231 breast
MDA-MB-435 = test system: MDA-MB-435
MDA-N = test system: MDA-N
MOLT-4 leukemia = test system: MOLT-4 leukemia
NCI-H226 lung = test system: NCI-H226 lung
NCI-H23 lung = test system: NCI-H23 lung
NCI-H522 lung = test system: NCI-H522 lung
NCI/ADR-RES ovarian = test system: NCI/ADR-RES ovarian
OVCAR-3 ovarian = test system: OVCAR-3 ovarian
OVCAR-5 ovarian = test system: OVCAR-5 ovarian
OVCAR-8 ovarian = test system: OVCAR-8 ovarian
PC-3 prostate = test system: PC-3 prostate
RPMI-8226 leukemia = test system: RPMI-8226 leukemia
SF-268 CNS = test system: SF-268 CNS
SF-295 CNS = test system: SF-295 CNS
SK-MEL-2 melanoma = test system: SK-MEL-2 melanoma
SK-MEL-28 melanoma = test system: SK-MEL-28 melanoma
SK-MEL-5 melanoma = test system: SK-MEL-5 melanoma
SK-OV-3 ovarian = test system: SK-OV-3 ovarian
SN12C renal = test system: SN12C renal
SNB-19 CNS = test system: SNB-19 CNS
SNB-75 CNS = test system: SNB-75 CNS
SR leukemia = test system: SR leukemia
SW-620 colon = test system: SW-620 colon
TK-10 renal = test system: TK-10 renal
U251 CNS = test system: U251 CNS
UACC-62 melanoma = test system: UACC-62 melanoma
UO-31 renal = test system: UO-31 renal
BT-549 breast = test system: BT-549 breast
CAKI-1 renal = test system: CAKI-1 renal
HCC-2998 colon = test system: HCC-2998 colon
NCI-H460 lung = test system: NCI-H460 lung
UACC-257 melanoma = test system: UACC-257 melanoma

Measured: TGI

CCSc1n/c(=C\c2ccco2)c2nncn12
> 100 µM: 786-0 renal | A549 NSCLC | ACHN renal | CCRF-CEM leukemia | COLO 205 colon | DU-145 prostate | EKVX NSCLC | HCT-116 colon | HCT-15 colon | HL-60(TB) leukemia | HOP-62 NSCLC | HOP-92 NSCLC | HS 578T breast | HT29 colon | IGROV1 ovarian | K-562 leukemia | KM12 colon | LOX IMVI melanoma | M14 melanoma | MALME-3M melanoma | MCF7 breast | MDA-MB-231 breast | MDA-MB-435 | MDA-N | MOLT-4 leukemia | NCI-H226 lung | NCI-H23 lung | NCI-H522 lung | NCI/ADR-RES ovarian | OVCAR-3 ovarian | OVCAR-5 ovarian | OVCAR-8 ovarian | PC-3 prostate | RPMI-8226 leukemia | SF-268 CNS | SF-295 CNS | SK-MEL-2 melanoma | SK-MEL-28 melanoma | SK-MEL-5 melanoma | SK-OV-3 ovarian | SN12C renal | SNB-19 CNS | SNB-75 CNS | SR leukemia | SW-620 colon | TK-10 renal | U251 CNS | UACC-62 melanoma | UO-31 renal

COc1ccc2c3c1O[C@H]1C(OC)C=CC4C(C2)N(Cc2cccs2)CCC341 (some centres undefined)
> 100 µM: 786-0 renal | A549 NSCLC | BT-549 breast | CAKI-1 renal | CCRF-CEM leukemia | EKVX NSCLC | HCC-2998 colon | HCT-116 colon | HCT-15 colon | HL-60(TB) leukemia | HOP-62 NSCLC | HOP-92 NSCLC | HS 578T breast | HT29 colon | IGROV1 ovarian | K-562 leukemia | LOX IMVI melanoma | M14 melanoma | MALME-3M melanoma | MDA-MB-435 | MDA-N | MOLT-4 leukemia | NCI-H23 lung | NCI-H460 lung | NCI-H522 lung | NCI/ADR-RES ovarian | OVCAR-3 ovarian | OVCAR-5 ovarian | OVCAR-8 ovarian | RPMI-8226 leukemia | SF-268 CNS | SF-295 CNS | SK-OV-3 ovarian | SN12C renal | SNB-19 CNS | SR leukemia | SW-620 colon | TK-10 renal | UACC-257 melanoma | UO-31 renal
